# Laboratory results taken from PubChem BioAssay AID2060604 (Molecular Pharmacology Branch, DTP, NCI, 2025).
# System: 379773-124-R-J2-PDC complex spheroids, viability % test/control
# Experiment: Anticancer human tumor 379773-124-R-J2-PDC patient-derived endometrial carcinoma cell line growth inhibition [CLK]
# Details: for IC50: curve of first compound; for viability, T/C: stronger effect = lower value
# Description: A high-throughput screen of multi-cell type tumor spheroids was designed to identify active combinations of […] and targeted small molecules. Complex spheroids include a stromal component modeled by human endothelial cells (HUVEC) and fibroblasts modeled by human mesenchymal stem cells (MSCs). The concentration ranges selected for each drug and investigational agent were based upon clinically achievable concentrations if the clinical Cmax of the agent was known.
# Compounds. The drugs and investigational agents: cirtuvivint (SM08502; NSC835563), CC-671 (NSC850746), vemurafenib (NSC761431), tapotoclax (NSC804041), sotorasib (NSC818433), adagrasib (NSC831453), MRTX-1133 (NSC836407), BAY2416964 (NSC825713), copanlisib (NSC816437), inavolisib (NSC800729), abemaciclib (NSC768073), osimertinib (NSC779217), entinostat (NSC756642), eltanexor (KPT-8602, NSC794443), venetoclax (NSC766270), ceralasertib (NSC777638), bortezomib (NSC756655), olaparib (NSC753686), talazoparib (NSC767125), alisertib (NSC759677), peposertib (NSC802822), gemcitabine (NSC613327), 5-fluorouracil (NSC19893), SN-38 (NSC673596), oxaliplatin (NSC266046), paclitaxel (NSC125973), and doxorubicin (NSC123127), were obtained from the National Cancer Institute (NCI) Developmental Therapeutics Program Chemical Repository. The FDA-approved anticancer drug set is available from the Developmental Therapeutics Program at https://dtp.cancer.gov/organization/dscb/obtaining/available plates.htm. […] The stock solutions were prepared in dimethyl sulfoxide (DMSO, Sigma-Aldrich, St. Louis, MO, cat. D2650), except for the platinum complexes which were prepared in saline (Quality Biological, Gaithersburg, MD, cat. 114-055-101), at 800-fold the tested concentration and stored at -70 degrees C prior to their use. All drugs and investigational agents were tested over a range starting from a high concentration at or near the clinical Cmax and decreasing in half-log increments. If the clinical Cmax for an agent had not been determined, the highest concentration tested was 10 microM.
# Cell Culture. All cells were maintained in an incubator at 37 degrees C and 5% CO2 with 95% humidity. The PDC lines were cultured according to standard operating procedures established by the NCI PDMR. Briefly, all PDCs were thawed and cultured in Matrigel-coated flasks prepared with a working solution of 1X Ham's F-12 nutrient mix, without supplementation (Invitrogen, Waltham, MA, cat. 11765054), 100 U/mL penicillin-streptomycin (Invitrogen, cat. 15140122), and 2.5% Matrigel (Corning Inc., Corning, NY, cat. 354248) for the first three passages. The 947758-054-R-J2-PDC line was cultured in 6B/Colon 1A media, which includes advanced DMEM/F-12 (Thermo Fisher Scientific, cat. 12634028), 10 mM HEPES (Thermo Fisher Scientific, cat. 15630080), 1X GlutaMAX supplement (Thermo Fisher Scientific, cat. 35050061), 0.1 mg/mL primocin (InvivoGen, cat. ant-pm-2), 10% defined fetal bovine serum, heat inactivated (HyClone Laboratories Inc., cat. SH30070.03HI), 1.25 mM N-Acetyl-L-cysteine (Sigma-Aldrich, cat. A9165), 10 mM nicotinamide (Sigma-Aldrich, cat. N0636), 1X B-27 supplement (Thermo Fisher Scientific, cat. 17504044), 1X N-2 supplement (Thermo Fisher Scientific, cat. 17502048), and 10 microM Y-27632 dihydrochloride (Tocris Bioscience, cat. 1254). The 876862-298-R-J1-PDC was cultured in 6E media, which includes all 6B/Colon 1A media components plus 50% L-WRN conditioned media (ATCC, cat. CRL-3276), 50 ng/mL recombinant human EGF recombinant protein (hEGF; Thermo Fisher Scientific, cat. PHG0311), 10 ng/mL recombinant human fibroblast growth factor 10 (hGFG-10; PeproTech, cat. 100-26), 1 ng/mL recombinant human fibroblast growth factor 2 (hFGF-2; PeproTech, cat. 100-18B), and 1 µM prostaglandin E2 (PGE2; Tocris, cat. 2296). The 227483-062-R1-J1-PDC line was cultured in Panc media, containing all 6E components except hFGF-2, with the addition of 500 nM SB-431542 (Selleckchem, cat. S1067) and 10 nM gastrin (Tocris, cat. 3006). […]
# 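Also: compound exposure lasted seven days before the viability readout.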
# 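For viability, T/C in this document: 100% = DMSO vehicle control wells.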
smiles,measurement,setting,value
C=CC(=O)Nc1cc(Nc2nccc(-c3cn(C)c4ccccc34)n2)c(OC)cc1N(C)CCN(C)C + CN1CCN(c2cc(C(=O)Nc3cc4cc(-c5cnn(C)c5)ccc4cn3)ccn2)CC1,IC50,second compound 0.0316 µM,> 300 nM
same,IC50,second compound 0.1 µM,> 300 nM
same,IC50,second compound 0.316 µM,< 0.949 nM
same,IC50,second compound 1 µM,< 0.949 nM
same,IC50,second compound 3.16 µM,< 0.949 nM
same,IC50,second compound 10 µM,< 0.949 nM
same,"viability, T/C","second compound 0.0316 µM, first compound 0.000949 µM",100%
same,"viability, T/C","second compound 0.0316 µM, first compound 0.003 µM",93.1%
same,"viability, T/C","second compound 0.0316 µM, first compound 0.00949 µM",99.4%
same,"viability, T/C","second compound 0.0316 µM, first compound 0.03 µM",84.7%
same,"viability, T/C","second compound 0.0316 µM, first compound 0.0949 µM",96%
same,"viability, T/C","second compound 0.0316 µM, first compound 0.3 µM",89.7%
same,"viability, T/C","second compound 0.1 µM, first compound 0.000949 µM",80.4%
same,"viability, T/C","second compound 0.1 µM, first compound 0.003 µM",74%
same,"viability, T/C","second compound 0.1 µM, first compound 0.00949 µM",102%
same,"viability, T/C","second compound 0.1 µM, first compound 0.03 µM",84%
same,"viability, T/C","second compound 0.1 µM, first compound 0.0949 µM",76.2%
same,"viability, T/C","second compound 0.1 µM, first compound 0.3 µM",84.6%
same,"viability, T/C","second compound 0.316 µM, first compound 0.000949 µM",20.2%
same,"viability, T/C","second compound 0.316 µM, first compound 0.003 µM",31.4%
same,"viability, T/C","second compound 0.316 µM, first compound 0.00949 µM",34%
same,"viability, T/C","second compound 0.316 µM, first compound 0.03 µM",34%
same,"viability, T/C","second compound 0.316 µM, first compound 0.0949 µM",29.6%
same,"viability, T/C","second compound 0.316 µM, first compound 0.3 µM",20.9%
same,"viability, T/C","second compound 1 µM, first compound 0.000949 µM",0.28%
same,"viability, T/C","second compound 1 µM, first compound 0.003 µM",1.12%
same,"viability, T/C","second compound 1 µM, first compound 0.00949 µM",1.77%
same,"viability, T/C","second compound 1 µM, first compound 0.03 µM",0.18%
same,"viability, T/C","second compound 1 µM, first compound 0.0949 µM",1.57%
same,"viability, T/C","second compound 1 µM, first compound 0.3 µM",0.13%
same,"viability, T/C","second compound 3.16 µM, first compound 0.000949 µM",1.26%
same,"viability, T/C","second compound 3.16 µM, first compound 0.003 µM",0.19%
same,"viability, T/C","second compound 3.16 µM, first compound 0.00949 µM",0.82%
same,"viability, T/C","second compound 3.16 µM, first compound 0.03 µM",1.59%
same,"viability, T/C","second compound 3.16 µM, first compound 0.0949 µM",0.11%
same,"viability, T/C","second compound 3.16 µM, first compound 0.3 µM",0.61%
same,"viability, T/C","second compound 10 µM, first compound 0.000949 µM",0.28%
same,"viability, T/C","second compound 10 µM, first compound 0.003 µM",0.45%
same,"viability, T/C","second compound 10 µM, first compound 0.00949 µM",0.46%
same,"viability, T/C","second compound 10 µM, first compound 0.03 µM",0.59%
same,"viability, T/C","second compound 10 µM, first compound 0.0949 µM",0.28%
same,"viability, T/C","second compound 10 µM, first compound 0.3 µM",0.26%
CCN1CCN(Cc2ccc(Nc3ncc(F)c(-c4cc(F)c5nc(C)n(C(C)C)c5c4)n3)nc2)CC1 + CNC(=O)c1ccc(Nc2nc(OC3CCCC3)c3c(-c4ccc5nc(C)oc5c4)c[nH]c3n2)c(OC)c1,IC50,second compound 0.0316 µM,> 1000 nM
same,IC50,second compound 0.1 µM,< 3.16 nM
same,IC50,second compound 0.316 µM,< 3.16 nM
same,IC50,second compound 1 µM,< 3.16 nM
same,IC50,second compound 3.16 µM,< 3.16 nM
same,IC50,second compound 10 µM,< 3.16 nM
same,"viability, T/C","second compound 0.0316 µM, first compound 0.00316 µM",74.5%
same,"viability, T/C","second compound 0.0316 µM, first compound 0.01 µM",77.5%
same,"viability, T/C","second compound 0.0316 µM, first compound 0.0316 µM",75.4%
same,"viability, T/C","second compound 0.0316 µM, first compound 0.1 µM",76.6%
same,"viability, T/C","second compound 0.0316 µM, first compound 0.316 µM",87.1%
same,"viability, T/C","second compound 0.0316 µM, first compound 1 µM",81.5%
same,"viability, T/C","second compound 0.1 µM, first compound 0.00316 µM",32.6%
same,"viability, T/C","second compound 0.1 µM, first compound 0.01 µM",48.7%
same,"viability, T/C","second compound 0.1 µM, first compound 0.0316 µM",40.5%
same,"viability, T/C","second compound 0.1 µM, first compound 0.1 µM",31.1%
same,"viability, T/C","second compound 0.1 µM, first compound 0.316 µM",42.7%
same,"viability, T/C","second compound 0.1 µM, first compound 1 µM",37.2%
same,"viability, T/C","second compound 0.316 µM, first compound 0.00316 µM",31.9%
same,"viability, T/C","second compound 0.316 µM, first compound 0.01 µM",41.5%
same,"viability, T/C","second compound 0.316 µM, first compound 0.0316 µM",40%
same,"viability, T/C","second compound 0.316 µM, first compound 0.1 µM",38%
same,"viability, T/C","second compound 0.316 µM, first compound 0.316 µM",44.6%
same,"viability, T/C","second compound 0.316 µM, first compound 1 µM",31.5%
same,"viability, T/C","second compound 1 µM, first compound 0.00316 µM",43.2%
same,"viability, T/C","second compound 1 µM, first compound 0.01 µM",30.3%
same,"viability, T/C","second compound 1 µM, first compound 0.0316 µM",31.3%
same,"viability, T/C","second compound 1 µM, first compound 0.1 µM",30%
same,"viability, T/C","second compound 1 µM, first compound 0.316 µM",36%
same,"viability, T/C","second compound 1 µM, first compound 1 µM",34.1%
same,"viability, T/C","second compound 3.16 µM, first compound 0.00316 µM",33.8%
same,"viability, T/C","second compound 3.16 µM, first compound 0.01 µM",31.4%
same,"viability, T/C","second compound 3.16 µM, first compound 0.0316 µM",34.2%
same,"viability, T/C","second compound 3.16 µM, first compound 0.1 µM",31.5%
same,"viability, T/C","second compound 3.16 µM, first compound 0.316 µM",44.9%
same,"viability, T/C","second compound 3.16 µM, first compound 1 µM",28.5%
same,"viability, T/C","second compound 10 µM, first compound 0.00316 µM",32.5%
same,"viability, T/C","second compound 10 µM, first compound 0.01 µM",24.3%
same,"viability, T/C","second compound 10 µM, first compound 0.0316 µM",35.7%
same,"viability, T/C","second compound 10 µM, first compound 0.1 µM",30.9%
same,"viability, T/C","second compound 10 µM, first compound 0.316 µM",37.3%
same,"viability, T/C","second compound 10 µM, first compound 1 µM",33.2%
